From PubChem BioAssay AID1919013 (Molecular Pharmacology Branch, DTP, NCI, 2023)
Values joined by “and” are separate entries in the source; they are usually repeats but may differ in a detail not shown here. Equal values may be shown once.

Tested on: LG0703-F498-PDC complex spheroid growth
Test: Anticancer human tumor LG0703-F498-PDC patient-derived lung adenocarcinoma cell line growth inhibition [AhR]
Details: for viability, T/C: stronger effect = lower value
Summary of the method: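 Complex tumor spheroids co-cultured with HUVEC and human MSC stroma; AhR antagonists tested in combination with standard-of-care and investigational agents. Top concentration at or near clinical Cmax (else 10 microM), half-log dilutions; growth expressed as percent test/control.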

[1] = curve of first compound, second compound 0.1 µM
[2] = curve of first compound, second compound 0.316 µM
[3] = curve of first compound, second compound 1 µM
[4] = curve of first compound, second compound 3.16 µM
[5] = curve of first compound, second compound 10 µM
[6] = second compound 0.1 µM, first compound 0.0316 µM
[7] = second compound 0.1 µM, first compound 0.1 µM
[8] = second compound 0.1 µM, first compound 0.316 µM
[9] = second compound 0.1 µM, first compound 1 µM
[10] = second compound 0.1 µM, first compound 3.16 µM
[11] = second compound 0.1 µM, first compound 10 µM
[12] = second compound 0.316 µM, first compound 0.0316 µM
[13] = second compound 0.316 µM, first compound 0.1 µM
[14] = second compound 0.316 µM, first compound 0.316 µM
[15] = second compound 0.316 µM, first compound 1 µM
[16] = second compound 0.316 µM, first compound 3.16 µM
[17] = second compound 0.316 µM, first compound 10 µM
[18] = second compound 1 µM, first compound 0.0316 µM
[19] = second compound 1 µM, first compound 0.1 µM
[20] = second compound 1 µM, first compound 0.316 µM
[21] = second compound 1 µM, first compound 1 µM
[22] = second compound 1 µM, first compound 3.16 µM
[23] = second compound 1 µM, first compound 10 µM
[24] = second compound 3.16 µM, first compound 0.0316 µM
[25] = second compound 3.16 µM, first compound 0.1 µM
[26] = second compound 3.16 µM, first compound 0.316 µM
[27] = second compound 3.16 µM, first compound 1 µM
[28] = second compound 3.16 µM, first compound 3.16 µM
[29] = second compound 3.16 µM, first compound 10 µM
[30] = second compound 10 µM, first compound 0.0316 µM
[31] = second compound 10 µM, first compound 0.1 µM
[32] = second compound 10 µM, first compound 0.316 µM
[33] = second compound 10 µM, first compound 1 µM
[34] = second compound 10 µM, first compound 3.16 µM
[35] = second compound 10 µM, first compound 10 µM
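Also: luminescence taken as a proxy for viable cell amount.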
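For viability, T/C in this document: percent of DMSO vehicle control where 100% means growth equal to vehicle.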

Row | SMILES | IC50 [1] [nM] | IC50 [2] [nM] | IC50 [3] [nM] | IC50 [4] [nM] | IC50 [5] [nM] | viability, T/C [6] [%] | viability, T/C [7] [%] | viability, T/C [8] [%] | viability, T/C [9] [%] | viability, T/C [10] [%] | viability, T/C [11] [%] | viability, T/C [12] [%] | viability, T/C [13] [%] | viability, T/C [14] [%] | viability, T/C [15] [%] | viability, T/C [16] [%] | viability, T/C [17] [%] | viability, T/C [18] [%] | viability, T/C [19] [%] | viability, T/C [20] [%] | further results
1 | CC1(C)CCC(CN2CCN(c3ccc(C(=O)NS(=O)(=O)c4ccc(NCC5CCOCC5)c([N+](=O)[O-])c4)c(Oc4cnc5[nH]ccc5c4)c3)CC2)=C(c2ccc(Cl)cc2)C1 + CC(CO)NC(=O)c1cc(-c2ccc(Cl)cc2)nn(-c2cnn(C)c2)c1=O | 5910 | 5650 | 5800 | 5480 | 5130 | 92.1 | 99.7 | 89.5 | 85.6 | 87.4 | 18.4 | 106 | 108 | 86.8 | 82.4 | 86 | 20.5 | 85.6 | 97.4 | 90.3 | viability, T/C [21]: 92.7%; viability, T/C [22]: 85.4%; viability, T/C [23]: 18.2%; viability, T/C [24]: 82.2%; viability, T/C [25]: 80.1%; viability, T/C [26]: 90.1%; viability, T/C [27]: 90.2%; viability, T/C [28]: 78.7%; viability, T/C [29]: 18.3%; viability, T/C [30]: 75.8%; viability, T/C [31]: 80.1%; viability, T/C [32]: 77.2%; viability, T/C [33]: 78.2%; viability, T/C [34]: 73.2%; viability, T/C [35]: 17.9%
2 | CCc1c2c(nc3ccc(O)cc13)-c1cc3c(c(=O)n1C2)COC(=O)[C@]3(O)CC | – | – | – | – | – | – | – | – | – | – | – | – | – | – | – | – | – | – | – | – | viability, T/C (compound 0.000949 µM): 95.1% and 92.3% and 101%; viability, T/C (compound 0.003 µM): 87% and 101% and 106%; viability, T/C (compound 0.00949 µM): 95.9% and 86.3% and 92.1%; viability, T/C (compound 0.03 µM): 62.3% and 66% and 69.1%; viability, T/C (compound 0.0949 µM): 47.3% and 57% and 58.6%; viability, T/C (compound 0.3 µM): 30.2% and 32.5% and 34.4%; IC50 (curve of compound): 67.4 nM and 111 nM and 123 nM
3 | O=C(C=Cc1cccc(S(=O)(=O)Nc2ccccc2)c1)NO + Cc1cncc(-c2nc(NCCc3c[nH]c4ccccc34)c3ncn(C(C)C)c3n2)c1 | 619 | 657 | 523 | 423 | < 31.6 | 118 | 115 | 75.8 | 30.8 | 10.1 | 1.27 | 111 | 104 | 81.1 | 32 | 7.58 | 1.48 | 106 | 108 | 69.3 | viability, T/C [21]: 23.6%; viability, T/C [22]: 6.31%; viability, T/C [23]: 0.83%; viability, T/C [24]: 59.9%; viability, T/C [25]: 71.5%; viability, T/C [26]: 57.8%; viability, T/C [27]: 25%; viability, T/C [28]: 6.63%; viability, T/C [29]: 1.68%; viability, T/C [30]: 1.93%; viability, T/C [31]: 2.88%; viability, T/C [32]: 4.14%; viability, T/C [33]: 8.01%; viability, T/C [34]: 9.58%; viability, T/C [35]: 1.55%
4 | O=C(c1cc(Cc2n[nH]c(=O)c3ccccc23)ccc1F)N1CCN(C(=O)C2CC2)CC1 + Cc1ccccc1N=Nc1ccc(NC(=O)c2ccnn2C)c(C)c1 | > 10000 | > 10000 | > 10000 | > 10000 | > 10000 | 89.3 | 94.8 | 89.8 | 93.8 | 85.7 | 84.6 | 96.5 | 119 | 95.7 | 102 | 102 | 79.9 | 86.7 | 98 | 88.7 | viability, T/C [21]: 94.4%; viability, T/C [22]: 90.2%; viability, T/C [23]: 82.2%; viability, T/C [24]: 82.1%; viability, T/C [25]: 97.1%; viability, T/C [26]: 83.5%; viability, T/C [27]: 86.9%; viability, T/C [28]: 83.9%; viability, T/C [29]: 73.9%; viability, T/C [30]: 85.6%; viability, T/C [31]: 93%; viability, T/C [32]: 94.5%; viability, T/C [33]: 77.8%; viability, T/C [34]: 72.3%; viability, T/C [35]: 70.5%
